Where “and” joins values, the source holds several entries; their conditions need not be identical. Equal values may be shown once.
Columns and labels:
Assay in all cases: MIC, 25 ocular isolates, broth microdilution (Example 8)
Assay type in all cases: cell-based
[1] = system: Staphylococcus aureus fluoroquinolone-susceptible; parameters: Mean MIC (Descriptive Statistics) / Minimum MIC (Descriptive Statistics) / Maximum MIC (Descriptive Statistics): unit: µg/mL; conditions: 25 isolates
Description: (§1) • Mueller-Hinton Broth in tubes was inoculated with 25 ocular isolates of Staphylococcus aureus fluoroquinolone-susceptible, Staphylococcus aureus fluoroquinolone-resistant, Staphylococcus epidermidis (Coagulase-negative Staphylococcus) fluoroquinolone-susceptible, Staphylococcus epidermidis (Coagulase-negative Staphylococcus) fluoroquinolone-resistant, Pseudomonas aeruginosa and Serratia marcescens, plus two controls (Staphylococcus aureus and E. coli) and incubated at 37° C. overnight on a shaker set at 250 rpm.
(§2) On the day of testing, a 640 μg/ml (1280 μg/ml for Serratia marcescens and Pseudomonas aeruginosa) concentration was prepared from a 1% stock solution in 0.01% acetic acid, 0.2% BSA in polypropylene tubes.
(§3) Serial doubling dilutions in 0.01% acetic acid, 0.2% BSA in 96 well polypropylene plates, which are used as reservoirs for the inoculation of the test plates, were carried out to obtain serial dilutions of test agents at 10 times the required test concentrations: 640, 320, 160, 80, 40, 20, 10, 5, 2.5, 1.25, and 0.625 μg/ml (1280, 640, 320, 160, 80, 40, 20, 10, 5, 2.5, and 1.25 μg/ml for Serratia marcescens and Pseudomonas aeruginosa).
(§4) Ten μl of diluted 10×test agents was added to each well of one row of the 96 well polypropylene plates from column 2 to column 12 (column 1 is a control for bacteria alone, with no peptide). Test agent concentrations in columns 2-12 were as follows: 64, 32, 16, 8, 4, 2, 1, 0.5, 0.25, 0.125, and 0.0625 μg/ml (128, 64, 32, 16, 8, 4, 2, 1, 0.5, 0.25, and 0.125 μg/ml for Serratia marcescens and Pseudomonas aeruginosa). The same peptide was in each of the 8 rows. One plate contained dilutions of one test agent and 8 bacterial isolates.
(§5) On the day of testing, the overnight bacterial broth cultures of Staphylococcus aureus fluoroquinolone-susceptible, Staphylococcus aureus fluoroquinolone-resistant, Staphylococcus epidermidis (Coagulase-negative Staphylococcus) fluoroquinolone-susceptible, Staphylococcus epidermidis (Coagulase-negative Staphylococcus) fluoroquinolone-resistant, Serratia marcescens, and Pseudomonas aeruginosa, plus two controls (Staphylococcus aureus and E. coli) were diluted in 5 ml of trypticase soy broth to yield turbidity equal to a 0.5 McFarland standard. The final inoculum for MIC testing for Staphylococcus aureus fluoroquinolone-susceptible, Staphylococcus aureus fluoroquinolone-resistant, Staphylococcus epidermidis (Coagulase-negative Staphylococcus) fluoroquinolone-susceptible, Staphylococcus epidermidis (Coagulase-negative Staphylococcus) fluoroquinolone-resistant, Serratia marcescens, and Pseudomonas aeruginosa was achieved by placing 0.05 ml of the turbidity adjusted sample to 5 ml of Mueller-Hinton broth.
(§6) Ninety μl of the bacterial suspensions was dispensed in each well from column 1 to column 12. Each bacterial isolate was placed in one row of a 96 well polypropylene plate containing the test agents. The plates were placed on shaker at 15 minutes at room temperature, and then incubated at 37° C. overnight. MICs were determined visually as the lowest concentration of drug that inhibits visible bacterial growth.

Pseudomonas aeruginosa = conditions: 25 isolates; >128 was Replaced with 256
Description: as §1, §2, §3, §4, §5, §6

Serratia marcescens = conditions: 25 isolates; >128 was Replaced with 256
Description: as §1, §2, §3, §4, §5, §6

[2] = system: Staphylococcus aureus fluoroquinolone-resistant; conditions: 25 isolates
Description: as §1, §2, §3, §4, §5, §6

[3] = system: Staphylococcus epidermidis (Coagulase-negative Staphylococcus) fluoroquinolone-resistant; conditions: 25 isolates; <0.0625 was Replaced with 0.03125
Description: as §1, §2, §3, §4, §5, §6

[4] = system: Staphylococcus epidermidis (Coagulase-negative Staphylococcus) fluoroquinolone-susceptible; conditions: 25 isolates; <0.0625 was Replaced with 0.03125
Description: as §1, §2, §3, §4, §5, §6

[5] = system: Moraxella species (including Moraxella catarrhalis); conditions: for Minimum MIC / Maximum MIC / Mean MIC: descriptive statistics, n=25; for Maximum MIC / Mean MIC / Median MIC: >64 replaced with 128; for Median MIC: n=25 isolates
Description: (§7) Mueller-Hinton Broth supplemented with 2% lysed horse blood in tubes was inoculated with 25 ocular isolates of Streptococcus pneumoniae, Streptococcus viridans group, and Moraxella species (including Moraxella catarrhalis) plus two controls (Staphylococcus aureus and E. coli) and incubated at 37° C. overnight. Additionally, Mueller-Hinton Broth in tubes was inoculated with two controls (Staphylococcus aureus and E. coli) and incubated at 37° C. overnight on a shaker set at 250 rpm.
as §2, §3, §4
(§8) On the day of testing, the overnight bacterial broth cultures of Streptococcus pneumoniae, Streptococcus viridans and Moraxella species (including Moraxella catarrhalis) plus two controls (Staphylococcus aureus and E. coli) were diluted in 5 ml of trypticase soy broth to yield turbidity equal to a 0.5 McFarland standard. The final inoculum for MIC testing for Streptococcus pneumoniae, Streptococcus viridans and Moraxella species (including Moraxella catarrhalis) was achieved by placing 0.1 ml of the turbidity adjusted sample to 5 ml of Mueller-Hinton broth containing 2% lysed horse red blood cells.
as §6

Streptococcus pneumoniae = conditions: 25 isolates; >64 was Replaced with 128
Description: as §7, §2, §3, §4, §8, §6

[6] = system: Streptococcus viridans group; conditions: 25 isolates; >64 was Replaced with 128
Description: as §7, §2, §3, §4, §8, §6

Haemophilus influenzae = conditions: for Minimum MIC / Maximum MIC / Mean MIC: descriptive statistics, n=25; for Maximum MIC / Mean MIC / Median MIC: >64 replaced with 128; for Median MIC: n=25 isolates
Description: HTM (Haemophilus Test Medium) in tubes was inoculated with 25 ocular isolates of Haemophilus influenzae plus two controls (Staphylococcus aureus and E. coli) and incubated at 37° C. overnight. Additionally, Mueller-Hinton Broth in tubes was inoculated with two controls (Staphylococcus aureus and E. coli) and incubated at 37° C. overnight on a shaker set at 250 rpm.
as §2, §3, §4
On the day of testing, the overnight bacterial broth cultures of Haemophilus species was diluted in 5 ml of trypticase soy broth to yield turbidity equal to a 0.5 McFarland standard. The final inoculum for MIC testing for Haemophilus species was achieved by placing 0.1 ml of the turbidity adjusted sample to 5 ml of HTM medium.
as §6

Row | Compound | Maximum MIC (Descriptive Statistics) [1] | Mean MIC (Descriptive Statistics) [1] | Median MIC (Descriptive Statistics / Mann-Whitney) [1] | Minimum MIC (Descriptive Statistics) [1] | Maximum MIC (Descriptive Statistics) (Pseudomonas aeruginosa) | Mean MIC (Descriptive Statistics) (Pseudomonas aeruginosa) | Median MIC (Descriptive Statistics / Mann-Whitney) (Pseudomonas aeruginosa) | Minimum MIC (Descriptive Statistics) (Pseudomonas aeruginosa) | Maximum MIC (Descriptive Statistics) (Serratia marcescens) | Mean MIC (Descriptive Statistics) (Serratia marcescens) | Median MIC (Descriptive Statistics / Mann-Whitney) (Serratia marcescens) | Minimum MIC (Descriptive Statistics) (Serratia marcescens) | Maximum MIC (Descriptive Statistics) [2] | Mean MIC (Descriptive Statistics) [2] | Median MIC (Descriptive Statistics / Mann-Whitney) [2] | Minimum MIC (Descriptive Statistics) [2] | Maximum MIC (Descriptive Statistics) [3] | Mean MIC (Descriptive Statistics) [3] | Median MIC (Descriptive Statistics / Mann-Whitney) [3] | Minimum MIC (Descriptive Statistics) [3] | further results
1 | N=C(N)NCCCCC(=O)Nc1cc(C(F)(F)F)cc(NC(=O)c2cc(C(=O)Nc3cc(C(F)(F)F)cc(NC(=O)CCCCNC(=N)N)c3O[C@@H]3CCNC3)ncn2)c1O[C@@H]1CCNC1 [Olig 4] | 0.5000 | 0.2850 | 0.2500 | 0.1250 | 8 µg/mL | 3.54 µg/mL | 4.00 | 0.5 µg/mL | 32 µg/mL | 12.4 µg/mL | 8.00 | 0.25 µg/mL | 1.0000 | 0.3200 | 0.2500 | 0.1250 | 0.2500 | 0.1300 | 0.125 | 0.0313 | Maximum MIC (Descriptive Statistics) [4]: 0.2500; Mean MIC (Descriptive Statistics) [4]: 0.1388; Median MIC (Descriptive Statistics / Mann-Whitney) [4]: 0.125; Minimum MIC (Descriptive Statistics) [4]: 0.0313; Minimum MIC [5]: 0.50 µg/mL; Maximum MIC [5]: 128.00 µg/mL; Mean MIC [5]: 21.42 µg/mL; Median MIC [5]: 4.00 µg/mL; Maximum MIC (Descriptive Statistics) (Streptococcus pneumoniae): 128 µg/mL; Mean MIC (Descriptive Statistics) (Streptococcus pneumoniae): 6.08 µg/mL; Median MIC (Descriptive Statistics / Mann-Whitney) (Streptococcus pneumoniae): 1.00; Minimum MIC (Descriptive Statistics) (Streptococcus pneumoniae): 0.5 µg/mL; Maximum MIC (Descriptive Statistics) [6]: 32 µg/mL; Mean MIC (Descriptive Statistics) [6]: 5.84 µg/mL; Median MIC (Descriptive Statistics / Mann-Whitney) [6]: 4.00; Minimum MIC (Descriptive Statistics) [6]: 1 µg/mL; Minimum MIC (Haemophilus influenzae): 2.00 µg/mL; Maximum MIC (Haemophilus influenzae): 32.00 µg/mL; Mean MIC (Haemophilus influenzae): 8.56 µg/mL; Median MIC (Haemophilus influenzae): 8.00 µg/mL
2 | N=C(N)NCCCCC(=O)Nc1cc(C(F)(F)F)cc(NC(=O)c2cnc(C(=O)Nc3cc(C(F)(F)F)cc(NC(=O)CCCCNC(=N)N)c3SCCN)cn2)c1SCCN [Olig 5] | 0.5000 | 0.2450 | 0.2500 | 0.1250 | 256 µg/mL | 85.9 µg/mL | 64.0 | 4 µg/mL | 256 µg/mL | 233 µg/mL | 256.0 | 8 µg/mL | 0.5000 | 0.2900 | 0.2500 | 0.1250 | 0.5000 | 0.1475 | 0.125 | 0.0313 | Maximum MIC (Descriptive Statistics) [4]: 0.2500; Mean MIC (Descriptive Statistics) [4]: 0.1375; Median MIC (Descriptive Statistics / Mann-Whitney) [4]: 0.125; Minimum MIC (Descriptive Statistics) [4]: 0.0313; Minimum MIC [5]: 0.13 µg/mL; Maximum MIC [5]: 128.00 µg/mL; Mean MIC [5]: 13.26 µg/mL; Median MIC [5]: 0.50 µg/mL; Maximum MIC (Descriptive Statistics) (Streptococcus pneumoniae): 128 µg/mL; Mean MIC (Descriptive Statistics) (Streptococcus pneumoniae): 10.6 µg/mL; Median MIC (Descriptive Statistics / Mann-Whitney) (Streptococcus pneumoniae): 4.00; Minimum MIC (Descriptive Statistics) (Streptococcus pneumoniae): 0.5 µg/mL; Maximum MIC (Descriptive Statistics) [6]: 128 µg/mL; Mean MIC (Descriptive Statistics) [6]: 36.8 µg/mL; Median MIC (Descriptive Statistics / Mann-Whitney) [6]: 16.00; Minimum MIC (Descriptive Statistics) [6]: 0.5 µg/mL; Minimum MIC (Haemophilus influenzae): 2.0 µg/mL; Maximum MIC (Haemophilus influenzae): 128.0 µg/mL; Mean MIC (Haemophilus influenzae): 48.6 µg/mL; Median MIC (Haemophilus influenzae): 16.0 µg/mL and 16.00 µg/mL
